Test [1] has as its target T1, GPX4^U46C (Homo sapiens, UniProt P36969, U73C).
T1 construct: His6 (N, cleaved yes); made in house; host or cells: E. coli BL21-Gold (DE3), M9 minimal medium with 15NH4Cl
T1 sequence (P36969 33-197 U73C): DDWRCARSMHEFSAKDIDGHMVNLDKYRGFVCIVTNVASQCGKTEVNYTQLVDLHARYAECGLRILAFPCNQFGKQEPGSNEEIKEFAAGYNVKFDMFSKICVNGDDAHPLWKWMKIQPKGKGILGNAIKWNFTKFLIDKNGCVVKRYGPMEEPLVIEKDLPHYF
Nature of the test: Thermal shift assay (screen of LOC library). The test is classed as binding. The conditions noted are these: Table 1. The procedure:
To fully utilize the versatility shown by the […] site to accommodate structurally diverse compounds, we applied thermal shift assay to screen 9,719 compounds in the Lead-Optimized-Compound (LOC) library for in vitro binders of GPX4^U46C, which would shift the melting temperature of GPX4^U46C (|ΔTm|>2° C., FIG. 12D) (Kaplan et al. 2015).
Since the binding of small molecules may alter the thermostability of protein, we applied thermal shift assay to screen the LOC library, which determined binding of ligand from the change of the unfolding transition temperature (ΔTm) obtained in the presence of ligands relative to that obtained in the absence of ligands (Kaplan et al. 2015; Lo et al. 2004). For higher throughput purpose, we adapted the assay on 384-well PCR plate. With the assistance of Biomek Automated Liquid Handler (Beckman), 2 μl 10 mM stock solution (in 100% DMSO) of the each compound was transferred from 384-well library plates to 38 μl FPLC buffer (100 mM Tris pH 8.0, 300 mM NaCl, 3 mM TCEP) and mixed in each well of a 384-well mother plate. The compound solution was then dispensed, 12 μl per well, into three 384-well PCR plates. GPX4^U46C protein and Sypro orange were manually added to the plate, with the final concentrations of 5 μM and 5×, respectively, to make a volume of 20 μl per well right before thermal shift analysis of the specific plate. The thermal shift assay was performed on the ViiA 7 Real-Time PCR system (Thermo Fisher) with the thermal protocol: 25° for 15 s, Increase temp to 99° at a rate of 0.05°/sec, 99° for 15 sec. The fluorescence was recorded and analyzed by Protein Thermal Shift™ software. The mean |ΔTm| value for the biological triplicates were calculated and used for hit identification.

In test [2] the target is T2, GPX4 (Homo sapiens, UniProt P36969, U73C).
T2 sequence (P36969 33-197 U73C): T1 sequence (P36969 33-197 U73C)
The test can be described thus: Microscale thermophoresis (MST) binding to GPX4. An excerpt: (§1) Therefore, we applied a strategy of computer-facilitated design, based on MD simulation (Desmond) and Glide docking (Schrödinger Suite), and experimental high-throughput screening of a lead-optimized compound library of 10,000 compounds (FIGS. 6A-6E). All candidates were first evaluated by thermal denaturation assay and microscale thermophoresis (MST) to validate binding to GPX4 (Table 1). Surface plasmon resonance (SPR) and isothermal titration calorimetry (ITC) were then applied to precisely measure their binding kinetics and affinities, while ^1H-^15N heteronuclear single-quantum coherence (HSQC) NMR spectroscopy informed us of binding sites. We optimized two GPX4-specific activity assays to examine enzymatic inhibitory effects of hit compounds—LC-MS-based substrate/product monitoring and an NADPH-coupled assay. […] Some L880 analogues were also synthesized and tested (Table 2).

Test [3] concerns the target T1, GPX4^U46C. The test can be described thus: 1H,15N-HSQC-NMR of 15N-labeled GPX4^U46C. The test is classed as binding. Conditions: Table 1. On the procedure: Uniformly ^15N-labeled GPX4^U46C protein with N-terminal His6 tag was prepared. The GPX4^U46C construct was expressed in E. coli BL21-Gold (DE3) cells (Stratagene) growing at 37° C. in M9 minimal medium supplemented with […] ampicillin, 2 mM MgSO4, […] CaCl2, 1× trace metals, 1×RPMI 1640 vitamin stock (Sigma-Aldrich, #R7256), […] biotin, […] thiamine hydrochloride, 4 g/L glucose, and 3 g/L ^15NH4Cl as the sole nitrogen source. The following induction, lysis, and protein purification was the same as for the non-isotope-labeled His-tagged GPX4^U46C described above, except the N-terminal His6 tag was removed by adding 5 U/mg thrombin before FPLC purification. The thrombin reaction was after a buffer exchange to remove imidazole, which otherwise would inhibit thrombin, and was allowed to proceed overnight at 4° C.
Then the protein solution was concentrated to 50 μM before testing. For HSQC of GPX4 with other inhibitors, 50 μM ^15N-labeled GPX4 was preincubated with 800 μM inhibitor to be tested for […] at room temperature in buffer (100 mM MES, 5 mM TCEP, pH 6.5). D20 (10%) was then added for the field frequency lock. The ^1H-^15N HSQC spectra were collected on Bruker Avance III 500 Ascend (500 MHz) spectrometers (Columbia University) at 298K. The ^1H carrier frequency was positioned at the water resonance. The ^15N carrier frequency was positioned at 115 ppm. The spectral width in the ^1H dimension was 7,500 Hz and the width in the ^15N dimension was 1,824.6 Hz. Suppression of water signal was accomplished using the WATERGATE sequence. Heteronuclear decoupling was accomplished using GARP decoupling scheme.

Test [4] addresses T2, GPX4. The test can be described thus: Surface plasmon resonance (SPR). It counts as binding. The conditions noted are these: Table 1.
Text: as §1, with “These x-ray structures enabled further optimization of current inhibitors and the design of novel inhibitors targeting various binding sites on GPX4. Therefore,” for “Therefore,”

Test [5] addresses T3, GPX4 (Homo sapiens, UniProt P36969).
T3 sequence (P36969 1-170 isoform P36969-2): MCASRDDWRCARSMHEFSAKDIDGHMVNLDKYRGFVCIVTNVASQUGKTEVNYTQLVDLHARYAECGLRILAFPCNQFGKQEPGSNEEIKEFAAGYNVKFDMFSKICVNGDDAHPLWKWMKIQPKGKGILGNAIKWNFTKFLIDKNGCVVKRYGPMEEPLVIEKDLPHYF
Nature of the test: GPX4-specific enzymatic activity assay (LC-MS substrate/product, NADPH-coupled). The test is classed as biochemical.
Text: as §1, with “These x-ray structures enabled further optimization of current inhibitors and the design of novel inhibitors targeting various binding sites on GPX4. Therefore,” for “Therefore,”

The target in test [6] is T1, GPX4^U46C. The test can be described thus: Intact protein MALDI MS analysis, GPX4^U46C. It counts as binding. The conditions noted are these: protein preincubated with excess inhibitor. The procedure: GPX4^U46C or GPX4^AllCys(−)-A46C protein was pre-incubated with DMSO control or the inhibitor to be tested prior to MALDI MS analysis: 50 μM GPX4 protein was incubated with 500 μM inhibitors in FPLC buffer (100 mM Tris pH 8.0, 300 mM NaCl, and 3 mM TCEP) with 5% DMSO at RT for 1 hour before transferring to 4° C. overnight.
1 μl of the ligand-free protein (pre-incubated with DMSO) or protein-inhibitor complex (pre-incubated with the inhibitor to be tested) was mixed with 9 μl of 10 mg/ml sinapinic acid in the matrix solution (70:30 water/acetonitrile, with 0.1% TFA). 1.0 μl of the final mix was deposited onto the target carrier and allowed to air dry. MALDI spectrum was recorded using Bruker ultrafleXtreme MALDI-TOF instrument. The range of m/z detection and suppression was adjusted to accommodate the molecular weight of target protein. 2000 Hz and 50% intensity was applied for the laser setting. For each sample, five cumulative spectra were collected and the sum was recorded for analysis. All MALDI spectra of protein-inhibitor complex were compared with ligand-free protein to determine the mass shift. Mass shifts were aligned with the mass of potential staying group of each inhibitor to conclude covalent binding.

The target of test [7] is T1, GPX4^U46C. The test can be described thus: Co-crystal structure of GPX4^U46C with inhibitor. The test is classed as binding. The procedure: GPX4^U46C was pre-incubated with the covalent inhibitors before crystallization using the following specifically optimized condition.
RSL3 and ML162 condition: 50 μM GPX4^U46C incubated with 150 μM RSL3 or ML162 in the reaction buffer (20 mM Tris pH 9.0, 100 mM NaCl, 3 mM TCEP, 1.5% DMSO) at 15° C. for 1 hour before transferring to 4° C. overnight. CDS9 condition: 25 μM GPX4^U46C incubated with 2 mM CDS9 in the reaction buffer (100 mM Tris pH 9.0, 300 mM NaCl, 1 mM TCEP, 2% DMSO) at 37° C. for 2 hours before transferring to 4° C. overnight. TMT10 condition: 25 μM GPX4^U46C incubated with 2 mM TMT10 in the reaction buffer (100 mM Tris pH 9.0, 300 mM NaCl, 2% glycerol, 2% DMSO) at 37° C. for 4 hours before transferring to 4° C. overnight. MAC-5576 condition: 50 μM GPX4^U46C protein was incubated with 500 μM MAC-5576 in the reaction buffer (100 mM Tris pH 9.0, 300 mM NaCl, and 3 mM TCEP, 5% DMSO) at RT for 1 hour before transferring to 4° C. overnight.
After confirmation of covalent binding using intact protein MALDI MS analysis, the protein-inhibitor complex were exchanged into crystallization buffer (10 mM Tris pH 8.0, 5 mM TCEP) and concentrated to 5 mg/ml.

The test system of test [8] is GPX4 protein level in HT-1080 cells. Nature of the test: Western blot GPX4 degradation study in HT-1080. The test is classed as cell-based, human. The conditions noted are these: 1 μM RSL3, 1 μM ML162, 10 μM FIN56, 10 h, with 100 μM α-tocopherol. On the procedure: For the GPX4 degradation study, HT-1080 cells were seeded at 800,000 per well in a 60-mm plate and allowed to adhere overnight. Cells were then treated with 100 μM α-tocopherol and either 1 μM RSL3, 1 μM ML162, 10 μM IKE, 10 μM FIN56, or vehicle for 10 h. Cells were harvested with trypsin (Invitrogen, 25200-114), pelleted, and lysed with RIPA buffer.
For both experiments, cell lysates were blotted and imaged as previously described (Yang et al. 2014). Antibodies used were GPX4 (Abcam, ab125066, 1:250 dilution), actin (Cell Signaling, D18C11, 1:3,000 dilution), and GAPDH (Santa Cruz, sc-47724, 1:10,000 dilution). Results were quantified using a LI-COR Odyssey CLx IR scanner and GraphPad Prism 7.
On the technique in general: In western blotting, separated proteins are transferred to a membrane and probed.

SMILES strings stand for the structures. Like-named read-outs stand apart in the source and are kept apart here.

Broadly, the Kd is the concentration at which binding is half-saturated. `CC(C)(C(=O)[O][Sn]([CH3])([CH3])[CH3])N1C(=O)c2ccccc2C1=O` [LOC880]: the Thermal shift result in test [1] is reported as “positive”. Moreover, the affinity in test [2], expressed as Kd, was 6.7 µM. In addition, the MST entry in test [2] (Table 1) is listed as “positive”. In addition, in test [3], the Binding site result is recorded as “Allosteric Site 2” and the HSQC assay entry is given as “positive”. Besides, in test [4], the SPR entry is “positive”. Further, in test [5], the GPX4 enzymatic assay entry is listed as “positive”.
Turning to `CN(C)c1ccc(/C=C2\SC(N3CCN(CCO)CC3)=NC2=O)cc1` [LOC957], the Thermal shift entry in test [1] is “positive”. In addition, the MST entry in test [2] (Table 1) was “positive”. Besides, in test [2] (Table 1, read-out: MST Kd), the Kd was 6.8 µM. Also, in test [3], the Binding site result is “Allosteric Site 2” and the HSQC assay result is recorded as “positive”. In test [4], the SPR entry was “positive”. In test [5], the GPX4 enzymatic assay entry is recorded as “positive”.
With `O=C(Oc1cncc(Cl)c1)c1cccs1` [MAC-5576], the “covalent binding to GPX4^U46C by intact protein MALDI MS” value in test [6] was “able to covalently modify GPX4”. The “binding site in co-crystal structure” value in test [7] is “bound to the cys66 allosteric site”.
Regarding `CN(C)C(=O)c1ccc2c(c1)NC(=O)C1CCCN21` (stereo not drawn) [LOC4873], the Thermal shift result in test [1] is listed as “positive”. Further, the MST result in test [2] (Table 1) was “positive”. Besides, in test [2] (Table 1, read-out: MST Kd), the Kd was determined as 40 µM. Also, in test [3], the Binding site entry is “Allosteric Site 2” and the HSQC assay entry is “positive”. Further, in test [4], the SPR result was “positive”. In addition, the GPX4 enzymatic assay entry in test [5] is on record as “positive”.
For `O=S(=O)(NC1CCCCC1)c1ccc2c(c1)C(=NO)c1cc(S(=O)(=O)NC3CCCCC3)ccc1-2` [FIN56], in test [8], the “degradation of endogenous GPX4” value is recorded as “significantly promoted degradation of GPX4”.

Values taken from patent US20230167058A1, “GPX4 COMPOUNDS AND COMPOSITIONS AND METHODS OF TREATMENT USING SAME” (THE TRUSTEES OF COLUMBIA UNIVERSITY IN THE CITY OF NEW YORK, priority 2020, published 2023).
